Kd data for three compounds are collected here from patent US6300317A, “Self-assembling polynucleotide delivery system” (The Regents of the University of California, priority 1995, dated 2001).

Where two headings read alike, the source gives them in different places.

The subject of test [1] is calf thymus DNA. In words: Ethidium bromide displacement assay, binding of bis-acridines to double-stranded DNA. Particulars: computed from ethidium bromide displacement (IC50), noncooperative competitive binding model; read-out: Dissociation Constants of the Bis-acridines from Calf Thymus DNA. How it is done:
The affinity of the bis-acridines for calf thymus DNA was calculated from the displacement of ethidium bromide from double stranded nucleic acids (Nielsen, supra). Ethidium displacement was monitored by the decrease of the ethidium bromide fluorescence (ex.=540 nm, em.=610 nm) that occurs when it is released from DNA. The association constants of the bis-acridines relative to ethidium bromide are calculated from their IC50. In this study, spermidine bis-acridine trihydrochloride (SBA.cndot.3HCl) synthesized as described (Nielsen, supra), was used as the reference compound. As a result of the loss of one of its three positive charges, a slight but significant decrease in affinity is observed when the N^4 amino group of spermidine bis-acridine is engaged in an amide bond with the targeting carbohydrate in compound 21 (Gal-bA.cndot.2 HCl). However, we predict an increase in affinity when spermidine bis-acridine is linked to the highly positively charged NLS peptide SEQ ID NO:1. G. Karup et al., Int J Peptide Protein Res (1988) 32:331-343.

Test [2] relates to calf thymus DNA. Particulars: constant used to compute the bis-acridine binding constants; read-out: intrinsic dissociation constant for ethidium bromide; cited from earlier work.

Turning to `O=C(CCCCCS[C@@H]1O[C@H](CO)[C@H](O)[C@H](O)[C@H]1O)NCCCC[C@H](NC(=O)CCCCCS[C@@H]1O[C@H](CO)[C@H](O)[C@H](O)[C@H]1O)C(=O)N[C@@H](CCCCNC(=O)CCCCCS[C@@H]1O[C@H](CO)[C@H](O)[C@H](O)[C@H]1O)C(=O)N(CCCCNc1c2ccccc2nc2ccccc12)CCCNc1c2ccccc2nc2ccccc12` [Gal3 Lys2 -bA], the Kd in test [1] was 5.4 µM.
Still for that read-out and setting: the result for `c1ccc2c(NCCCCNCCCNc3c4ccccc4nc4ccccc34)c3ccccc3nc2c1` [SBA · 3HCl, N,N'-bis-(9-acridinyl)-4-aza-1,8-diaminooctane] reads 0.024 µM.
As to `CC[n+]1c(-c2ccccc2)c2cc(N)ccc2c2ccc(N)cc21` [ethidium bromide], the Kd in test [2] is 5.3 µM.
